Measured values taken from patent publication US20200308540A1, “METHODS OF MAKING, EXPANDING, AND USING A HUMAN PROGENITOR T CELL” (REGENTS OF THE UNIVERSITY OF MINNESOTA, priority 2017, published 2020).

Columns and labels:
[1] = test system: CD34^+ hematopoietic stem/progenitor cells (HSPCs); test: SR1 expansion culture of umbilical cord blood CD34+ HSPC (15 days); type: cell-based, human
Experimental: Frozen UCB units were thawed using standard methods (Rubinstein et al., Proc Natl Acad Sci USA. 1995; 92:10119-10122). The UCB unit was enriched for CD34^+-cells using the CliniMACS Cell Selection Device (Miltenyi Biotec, Gladbach, Germany) following manufacturer's instructions, and the resulting CD34-enriched cell population was placed in expansion media at a concentration of 5×10^3 cells per milliliter (cells/mL). The expansion culture media included SCF, FLT-3L, TPO, IL-6 (each at 50 ng/ml) and SR1 (750 nM). Cells were cultured in expansion culture media without the addition of antibiotics for 15 days; cytokines were replenished and cells were resuspended at 5×10^3 cells/mL at day 7.
HSC expansion media cultures (Boitano et al. Science. 2010; 329(5997):1345-1348) lasted 15 days prior to freezing.
It was previously reported that naïve-UCB can generate 4- to 5-fold Tprog expansion (Awong et al. Blood. 2009; 114(5):972-982). At least 2×10^5 CD34^+ HSPC are needed for HSCT; but a single UCB unit averages 2.5×10^3 CD34^+ HSPC (Delaney et al. Expert Rev Hematol. 2010; 3(3):273-283). This Example describes an investigation of whether adding SR1 (0.75 μM) to expand CD34^+ HSPC Wagner et al. Cell Stem Cell. 2016; 18(1):144-155) could improve in vitro pro-T generation. CD34^+ HSPC culture reproducibility (FIG. 11A) was characterized. […] 2012; 10(2):120-136).

[2] = test system: CD34+ stem cells; details: median; Wagner et al. 2016; cited from earlier work
[3] = test system: progenitor T cells (CD7^+ cells); test: OP9-DL1 co-culture of SR1-/UM171-expanded cells to generate progenitor T cells; type: cell-based, human; details: for CD34 expression during culture with OP9-DL1 cells: cells expanded with compound, then OP9-DL1 culture
Experimental: 1. SR1-expanded cells were suspended in 3 mL of OP9 media then seeded into a plate/flask containing irradiated OP9-DL1 cells at 80% confluency. The human cytokines FLT-3L, IL-7, and SCF were added from a 1,000×stock solution (to 1×final concentration). 2. Additional human cytokines FLT-3L, IL-7, and SCF were added from a 1,000×stock solution (to 1×final concentration) every other day during cell culture. 3. At day 5 and every 3 days to 4 days thereafter, media containing cells was removed, and cells and media were passed through a 70 μm sterile nylon mesh or a 40 μm cell strainer into a 50 mL conical tube. Passage through the mesh or strainer removes OP9-DL1 cells but not cells derived from UCBs. PBS (5 mL) was added, and the coculture was disaggregated by vigorous pipetting (using a 5 mL pipette) and passed through the same cell strainer. […] 4. The cells that passed through the cell strainer were centrifuged at 515-585×g for 5 minutes, the supernatant was removed, and the cells were suspended in 1 mL of OP9 media. At this stage, the cells were counted using a hemocytometer (FIG. 2), assayed by flow cytometry (FIG. 3), or co-culture was continued. For continued co-culture, the cells were transferred into a new 6-well plate already containing OP9-DL1 cells at 80% confluency in 2 mL of OP9 media, and human cytokines FLT-3L, IL-7, and SCF were added from a 1,000×stock solution (to 1×final concentration). 5. Cells were harvested as described in steps 3 and 4 at day 14 or day 21 and phenotype was assessed (see FIG. 2, FIG. 3, and FIG. 7) or the cells were injected into a mouse, as described in Example 5. OP9-DL1 were gamma-irradiated (100 Gy) and seeded onto tissue culture flasks. SR1-UCB and naïve-UCB were seeded 2:1 with OP9-DL1 to generate proT-cells after 13-14 days (Schmitt et al. Immunity. 2002; 17(6):749-756). To examine whether SR1-expanded HSPC could generate proT-cells in vitro, SR1-HSPC were co-cultured with OP9-DL1 (FIG. 11A). […] SR1-HSPC and naïve-HSPC co-cultures had similar % CD34^−CD7^+ cells, % CD7^+CD5^+ cells and % CD7^+CD1a^+ cells (FIG. 11C). […] From SR1-HSPC, an approximately 4-fold expansion of pro-Tcells was observed, similar to naïve-HSPC co-cultures (FIG. 11D). Combining SR1-expansion of HSPCs and use of OP9-DL1 co-cultures, a single starting HSPC yielded approximately 2×10^3 cells, a 200-fold greater expansion of SR1-proT cells over naïve proT-cells (FIG. 11E).

[4] = test system: NSG mice; test: Engraftment of progenitor T cells in NSG mice (thymus, spleen); details: mouse, in vivo
Experimental: ProT cells generated as described in Example 4 (after 21 days of co-culture) were injected into the liver of 2 day to 5 day old neonatal (NOD/SCID/γcnull (NSG)) mice (3 mice per group) at different cell concentrations/mouse (e.g., 2×10^5 cells, 5×10^5 cells, or 5×10^6 cells in 30 μL, volume). Optionally, 2×10^4 CD34-enriched HSCs, isolated from a UCB unit using the CliniMACS Cell Selection Device (Miltenyi Biotec, Gladbach, Germany) following manufacturer's instruction, were injected simultaneously.
Twelve weeks later, mice were sacrificed, and engraftment of the in vitro-derived ProT cells into immunodeficient mice was assessed by flow cytometry analysis using phenotypic characterization of cells within the thymus and spleen of the recipient mouse. Useful markers for analysis include CD45, CD3/TCR, CD8, CD4, CD5, CD7, and CD1a (antibodies were acquired from eBioscience, San Diego, Calif.).
As shown schematically in FIG. 8, SR1-expanded CD34^+ cells from a UCB unit were put into culture with OP9-DL1 cells for 14 days as described in Example 4. […] Four weeks later the mice were sacrificed and the cells' ability to engraft the thymus was assessed.
Tprogenitors were generated from naïve UCB by co-culture with OP9-DL1 cells for 14 days as described in Example 4. […] Four weeks later the mice were sacrificed and the cells' ability to engraft the thymus was assessed. […]

[5] = test system: patients; details: SR1-expanded cord blood; cited from earlier work

## CC(C)n1cnc2c(NCCc3ccc(O)cc3)nc(-c3csc4ccccc34)nc21 [SR1, StemRegenin-1]
[1]; SR1 0.75 μM, by day 15
  fold enhancement of total nuclear cells: 252-746 fold
  fold expansion of CD34^+CD90^+ cells: 170-415 fold
  fold expansion of long-term reconstituting CD34^+CD38^− cells: 157-558 fold
[1]; SR1-expanded umbilical cord blood
  fold expansion of CD34^+ hematopoietic stem/progenitor cells (HSPCs): greater than 250 fold
[2]
  fold expansion of CD34+ stem cells: 330 fold
[3]; SR1-expansion of HSPCs combined with OP9-DL1 co-culture
  cells yielded from a single starting HSPC: approximately 2×10^3 cells
[3]; SR1 expansion of human UCB, then co-culture with Notch ligand cell without SR1
  fold increase in ProT cells: 2000 fold
[3]
  CD34 expression during culture with OP9-DL1 cells: lose CD34 expression
[3]; flow cytometry after OP9-DL1 culture
  percentage of culture that is proT cell (CD7^+ cell): greater than 90%
[3]; from SR1-HSPC, day 14
  fold expansion of pro-T cells in OP9-DL1 co-culture: approximately 4 fold
[3]; normalized to initial CD34+ input cell number
  fold greater expansion of SR1-proT cells over naïve proT-cells: 200 fold
[4]
  thymus engraftment of cells treated with the compound, after OP9-DL1 co-culture: able to engraft the thymus
[5]
  median time to neutrophil engraftment: 15 days
  median time to platelet engraftment: 49 days

## Cn1nnc(-c2ccc3c(c2)[nH]c2nc(Cc4ccccc4)nc(NC4CCC(N)CC4)c23)n1 (stereo not shown) [UM171]
[3]
  CD34 expression during culture with OP9-DL1 cells: lose CD34 expression
[4]
  thymus engraftment of cells treated with the compound, after OP9-DL1 co-culture: able to engraft the thymus
